Test results published in patent publication US20250345295A1, “LMK235 COMPOSITIONS AND METHODS” (UNM Rainforest Innovations, priority 2024, published 2025).
“Also recorded” adds a separate entry of the source.

System: mice with trigeminal nerve injury
Experiment: Light/dark place preference test (anxiety-like behavior)
Type: in vivo, mouse
Conditions: nerve-injured mice, weeks 6-9 post surgery
Method: Anxiety-related behaviors were assessed in a manner typical in the literature—i.e., once at the end in week 8 since anxiety develops only in mice 6-8 weeks after persisting nerve injury (e.g., Lyons et al., Neuroscience 2015 Jun. 4; 295:126-138). The effects of HDACi on chronic craniofacial pain-related behaviors were assessed using light/dark place preference test and zero maze.
Animals were exposed to acoustic startle (5 minutes) immediately prior to placement in the light/dark place preference box as in a previous study (Lyons et al., Neuroscience 2015 Jun. 4; 295:126-138). Mils acoustic startle stress just prior to the test induces panic anxiety-like behavior with increased time and entries in the open arms compared to controls (de Paula HMG, Hoshino K, Behav Brain Res 2003 Dec. 17; 147(1-2):157-162; de Paula HMG, Hoshino K, Physiol Behav 2004 January; 80(4):459-464; Kontinen et al., Pain 1999 March;80(1-2):341-346). In the light/dark box place preference task (total time 10 minutes) anxiety-like behaviors were recorded as: (i) total time spent in the light area, (ii) number of entries into the light area, (iii) number of rearing events/exploratory behavior, (iv) latency of the first transition into the light chamber, and (v) latency of first re-entry (transition) back into the dark chamber.

For Cc1cc(C)cc(C(=O)NOCCCCCC(=O)NO)c1 [LMK235, N-[[6-(Hydroxyamino)-6-oxohexyl]oxy]-3,5-dimethyl-benzamide], the “anxiety-like behaviors, light/dark box test” value was “reduction of anxiety measures; also recorded: inhibited the development of anxiety-like behaviors”.
